Data as given in paper PMC10037499, “High-Throughput Screen Reveals the Structure–Activity Relationship of the Antimicrobial Lasso Peptide Ubonodin” (ACS Central Science, 2023).
Like-named read-outs stand apart in the source and are kept apart here. Where a SMILES comes first, the peptide text is derived from it.

Tests used:
[1] = test system: RNA polymerase (RNAP) in E. coli MC1061; test: High-throughput growth-based screen with NGS (enrichment value) for RNA polymerase inhibition; type: cell-based; set-up: key to Experimental observation (enrichment observed in the screen): Dropout: Many variants inhibit RNAP so strongly that they cannot be detected by NGS after IPTG induction (referred to as dropout variants); conditions: Table S4; variants whose MICs were tested
Procedure: The single mutant library was analyzed by NGS at multiple stages of sample preparation (Figure 2A) to track its evolution throughout the screen. Specifically, the frequency of each possible aa variant was computed at each stage by summing up counts for each distinct translated sequence and dividing by the total number of counts for all variants (eq S1, SI Methods). Since cells expressing an RNAP-inhibiting ubonodin variant will have growth defects relative to cells with a nontoxic variant, RNAP-inhibiting ubonodin variants are expected to decrease in frequency throughout the screen.
First, the naïve library (digested PCR products) was sequenced. These digested PCR products were cloned into the pUboABC backbone and transformed into a recA^– cloning strain. This plasmid library was sequenced again to capture any changes upon transformation of the library into E. coli. The change between the naïve library and the cloning transformation library was minimal (Figure S6A). This plasmid library was transformed into the screening strain MC1061, and the plasmid from resulting colonies was also sequenced. The library in MC1061 was grown up en masse in liquid culture to mid log phase, and a portion of the culture was plated. These colonies were scraped, then the plasmid was isolated and sequenced. Finally, the liquid culture was induced with IPTG, after which a portion of the culture was plated and the plasmid was isolated and sequenced. It is key to note that all samples from liquid cultures were plated prior to sequencing to ensure that only viable cells were sequenced. […] The rationale for sequencing at these five different stages was the possibility that leaky expression of uboA would affect the frequency of active mutants prior to IPTG induction. Indeed, we observed that the frequency of some uboA mutants dropped as soon as they were transformed into the screening strain MC1061 while the frequency of other mutants climbed (Figure 2B).
The behavior of the point variants (i.e., variants with a single aa substitution) was examined by calculating their enrichment values, the base-2 logarithm of the ratio of the variant’s frequency at a specific step of the screen to the variant’s frequency in the cloning transformation library (eq S3, Figure S6). The most relevant enrichment value for ubonodin activity is the comparison between the post-IPTG library and the cloning transformation library (Figure 2A). […] Many variants inhibit RNAP so strongly that they cannot be detected by NGS after IPTG induction (referred to as dropout variants). […] Variants with a stop codon mutation and variants containing an aa substitution at Tyr9 or Tyr27 (positions conserved in MccJ25 and shown to be crucial for RNAP inhibition, see Figure S7)[26] have positive enrichment values (1.2–1.7), serving as quality control for the screen (Figure 3A). Strikingly, 63% of point variants decreased in frequency, indicating a high tolerance to aa substitution. […] The positions with active variants are Asn11 through Ser24 in the loop and Asp3, Ser5, and Ala7 in the ring.
The single mutant and double mutant libraries were transformed into E. coli MC1061. Colonies were resuspended in media and subcultured into a larger culture. Aliquots of the cultures were sampled prior to and after induction with 10 μM IPTG and 100 μM IPTG and plated. After 16 h of incubation, the colonies were resuspended in media and plasmids were miniprepped.
Samples were PCR amplified with barcoded primers and combined such that double mutant library samples were over-represented compared to single mutant library samples to provide sufficient coverage of the larger double mutant library. Samples were sequenced using an Illumina MiSeq Micro 300nt and an Illumina NovaSeq 6000 Sequencing System. Downstream analysis of the data was conducted with Python, MATLAB, and R.
V to reduce genomic DNA contamination. One fragment was amplified with Xho I For Lib and a […]

E. coli MC1061 = test: Spot dilution assay of E. coli producing the ubonodin variant from pUboABC; type: cell-based; conditions: variant in pUboABC backbone in E. coli MC1061, induction with 100 μM IPTG, ten-fold serial dilutions, biological duplicates
Procedure: Cultures of E. coli MC1061 transformed with the appropriate plasmids were grown. Aliquots of the cultures were sampled prior to and after induction with 100 μM IPTG, and 10-fold serial dilutions were plated. […]
All cloning was conducted by PCR amplification (using Q5 polymerase), restriction digestion, ligation, (using T4 DNA ligase), and transformation into chemically competent E. coli XL1-Blue. All cloning with a pUboABC backbone was done by plating transformation mixt ures onto Lysogeny Broth (LB) plates supplemented with 100 μg/mL ampicillin and 0.2% w/v glucose, and colonies were inoculated into LB media supplemented with 100 μ g/mL ampicillin and 0.2% w/v glucose to suppress any leaky expression. Cloning for all other plasmid constructs was done by plating transformation mixtures onto Lysogeny Broth (LB) plates supplemented with 100 μ g/ m L ampicillin, and colonies were inoculated into LB media supplemented with 100 μ g/ m L ampicillin.
Plasmids were extracted using Qiagen QIAprep Spin Miniprep Kit and sequence verified using Sanger sequencing. All primer sequences are listed in Table S7, and all plasmid constructs are […]
pUboABC was cloned by amplifying pWC99 with pQE-80 NheI For and pAT8 Nco I Rev.
The amplicon was ligated into pWC99 digested with Nhe I and Nco I. pUboBC was cloned by digesting pUboABC with Nh e I and Nco I and ligating that fragment into pQE-80 digested with Nhe I and Nco I. pUboABC S5H I16P and pUboABCD S5H I16P were cloned with overlap PCR using pWC99 as the template. One fragment was amplified with pQE-80 EcoRI For and S5H I16P Rev v2 and the second fragment was amplified with S5H I16P For v2 and pQE-80 HindII I Rev. […]
All remaining plasmid constructs were cloned with overlap PCR. One fragment was amplified with Xho I For Lib and a mutagenic reverse primer and the second fragment was amplified with NheI Rev Lib and a mutagenic forward primer. The templates and mutagenic […]
The fragments were joined with a second round of PCR and amplified with XhoI For Lib and NheI Rev Lib. Amplicons were ligated into the appropriate plasmid backbone digested with Xho I and Nhe I-HF. The plasmid backbones […]
The appropriate plasmid was transformed into electrocompetent E. coli MC1061, plated onto LB plates supplemented with 100 μ g/ m L ampicillin and 0.2% w/v glucose, and incubated at 30 °C for 16 hours. Colonies were inoculated into LB media supplemented with 100 μ g/ m L ampicillin and 0.2% w/v glucose and grown at 37 °C for 16 hours. These cultures were sub-cultured to an OD600 of 0.02 in 50 mL of LB media supplemented with 100 μg/mL ampicillin in a 250 mL flask. Once the OD600 reached 0.3, a 1 mL aliquot was sampled immediately prior to inducing the cultures with 100 μM isopropyl β-D-1-thiogalactopyranoside (IPTG). The aliquot was washed with Phosphate-Buffered Saline (PBS) two times and ten-fold serial dilutions were spotted onto LB plates supplemented with 100 μ g/ m L ampicillin and 0.2% w/v glucose. For each following timepoint, a 1 mL sample of each culture was withdrawn, washed with PBS two times, and ten- […]
fold serial dilutions were spotted onto LB plates supplemented with 100 μ g/m L ampicillin and 0.2% w/v glucose. Plates were incubated for 16 hours at 37 °C before imaging. […]
250 mL flask. Ten-fold serial dilutions of the culture were plated onto LB plates supplemented with 100 μ g/ m L ampicillin and 0.2% w/v glucose. The cultures were then grown at 37 °C, and once the OD600 reached 0.3, a 1 mL sample of the culture was withdrawn immediately before the cultures were induced with 10 μM or 100 μM IPTG and returned to grow longer. […]
All plates were incubated at 37 °C for 16 hours, after which the number of colonies was counted. Three biological replicates of this assay were done.
Co-Culture of E. coli MC1061 pUboABC and E. coli MC1061 pUboBC pUboABC (0.9 ng) and pUboBC (0.1 ng) were transformed into electrocompetent E. coli MC1061 with a one- hour outgrowth at 37 °C in LB media supplemented with 0.2% w/v glucose. […]

B. cenocepacia AU0756 = test system: B. cenocepacia AU0756
Procedure: We proceeded to test the antimicrobial activity of the selected variants against two clinical isolates of the Bcc, B. cenocepacia AU0756 and B. cenocepacia AU24362, in broth microdilution assays. […] We revisited these measurements using broth microdilution assays following the Clinical & Laboratory Standards Institute (CLSI) standard.
Broth microdilution assays of the ubonodin variants were conducted using B. cenocepacia AU0756 and B. cenocepacia AU24362 with guidelines provided by the Clinical & Laboratory Standards Institute (CLSI).

Compound | Experimental observation (enrichment observed in the screen) [1] | Inhibits Growth (E. coli MC1061) | B. cenocepacia AU0756 MIC (B. cenocepacia AU0756) [µM] | MIC (B. cenocepacia AU0756) [µM] | MIC (B. cenocepacia AU0756; broth microdilution, mass basis, strain not named in the sentence (values match AU0756)) [µg/mL]
CC[C@H](C)[C@H](NC(=O)[C@H](Cc1c[nH]cn1)NC(=O)[C@H](CCSC)NC(=O)[C@@H]1CCCN1C(=O)[C@H](CCCNC(=N)N)NC(=O)[C@H](CC(N)=O)NC(=O)[C@H](Cc1ccccc1)NC(=O)[C@H](Cc1ccc(O)cc1)NC(=O)[C@@H]1CCC(=O)NCC(=O)NCC(=O)N[C@@H](CC(=O)O)C(=O)NCC(=O)N[C@@H](CO)C(=O)N[C@@H]([C@@H](C)CC)C(=O)N[C@@H](C)C(=O)N1)C(=O)NCC(=O)N[C@@H](CC(=O)O)C(=O)N[C@@H](Cc1c[nH]c2ccccc12)C(=O)N[C@@H](CCC(N)=O)C(=O)N[C@H](C(=O)N[C@@H](CCSC)C(=O)N[C@@H](CC(=O)O)C(=O)N[C@@H](CO)C(=O)NCC(=O)N[C@@H](Cc1ccc(O)cc1)C(=O)N[C@@H](Cc1ccc(O)cc1)C(=O)NCC(=O)O)[C@@H](C)CC [H17G] (HELM PEPTIDE1{G.G.D.G.S.I.A.E.Y.F.N.R.P.M.H.I.G.D.W.Q.I.M.D.S.G.Y.Y.G}$PEPTIDE1,PEPTIDE1,1:R1-8:R3$$$V2.0) | -6.5 | Yes | 0.125 to 0.25 | 0.125 to 0.25 | 0.4 to 0.8
CC[C@H](C)[C@@H]1NC(=O)[C@H](CO)NC(=O)CNC(=O)[C@H](CC(=O)O)NC(=O)CNC(=O)CNC(=O)CC[C@@H](C(=O)N[C@@H](Cc2ccc(O)cc2)C(=O)N[C@@H](Cc2ccccc2)C(=O)N[C@@H](CC(N)=O)C(=O)N[C@@H](CCCNC(=N)N)C(=O)N2CCC[C@H]2C(=O)N[C@@H](CCSC)C(=O)N[C@@H](Cc2c[nH]cn2)C(=O)N[C@@H](CC(=O)O)C(=O)N[C@@H](Cc2c[nH]cn2)C(=O)N[C@@H](CC(=O)O)C(=O)N[C@@H](Cc2c[nH]c3ccccc23)C(=O)N[C@@H](CCC(N)=O)C(=O)N[C@H](C(=O)N[C@@H](CCSC)C(=O)N[C@@H](CC(=O)O)C(=O)N[C@@H](CO)C(=O)NCC(=O)N[C@@H](Cc2ccc(O)cc2)C(=O)N[C@@H](Cc2ccc(O)cc2)C(=O)NCC(=O)O)[C@@H](C)CC)NC(=O)[C@H](C)NC1=O [I16D] (HELM PEPTIDE1{G.G.D.G.S.I.A.E.Y.F.N.R.P.M.H.D.H.D.W.Q.I.M.D.S.G.Y.Y.G}$PEPTIDE1,PEPTIDE1,1:R1-8:R3$$$V2.0) | -6.2 | Yes | 0.5 to 2 | – | –
CC[C@H](C)[C@@H]1NC(=O)[C@H](CO)NC(=O)CNC(=O)[C@H](CC(=O)O)NC(=O)CNC(=O)CNC(=O)CC[C@@H](C(=O)N[C@@H](Cc2ccc(O)cc2)C(=O)N[C@@H](Cc2ccccc2)C(=O)N[C@@H](CC(N)=O)C(=O)N[C@@H](CCCNC(=N)N)C(=O)N2CCC[C@H]2C(=O)N[C@@H](CCSC)C(=O)N[C@@H](Cc2c[nH]cn2)C(=O)N[C@@H](CCC(=O)O)C(=O)N[C@@H](Cc2c[nH]cn2)C(=O)N[C@@H](CC(=O)O)C(=O)N[C@@H](Cc2c[nH]c3ccccc23)C(=O)N[C@@H](CCC(N)=O)C(=O)N[C@H](C(=O)N[C@@H](CCSC)C(=O)N[C@@H](C)C(=O)N[C@@H](CO)C(=O)NCC(=O)N[C@@H](Cc2ccc(O)cc2)C(=O)N[C@@H](Cc2ccc(O)cc2)C(=O)NCC(=O)O)[C@@H](C)CC)NC(=O)[C@H](C)NC1=O [I16E D23A] (HELM PEPTIDE1{G.G.D.G.S.I.A.E.Y.F.N.R.P.M.H.E.H.D.W.Q.I.M.A.S.G.Y.Y.G}$PEPTIDE1,PEPTIDE1,1:R1-8:R3$$$V2.0) | Dropout | Yes | 2 to 8 | – | –
CC[C@H](C)[C@@H]1NC(=O)[C@H](CO)NC(=O)CNC(=O)[C@H](CC(=O)O)NC(=O)CNC(=O)CNC(=O)CC[C@@H](C(=O)N[C@@H](Cc2ccc(O)cc2)C(=O)N[C@@H](Cc2ccccc2)C(=O)N[C@@H](CC(N)=O)C(=O)N[C@@H](CCCNC(=N)N)C(=O)N2CCC[C@H]2C(=O)N[C@@H](CCSC)C(=O)N[C@@H](Cc2c[nH]cn2)C(=O)N[C@@H](CCC(=O)O)C(=O)N[C@@H](Cc2c[nH]cn2)C(=O)N[C@@H](CC(=O)O)C(=O)N[C@@H](Cc2c[nH]c3ccccc23)C(=O)N[C@@H](CCC(N)=O)C(=O)N[C@H](C(=O)N[C@@H](CCSC)C(=O)N[C@@H](CC(=O)O)C(=O)N[C@@H](CO)C(=O)NCC(=O)N[C@@H](Cc2ccc(O)cc2)C(=O)N[C@@H](Cc2ccc(O)cc2)C(=O)NCC(=O)O)[C@@H](C)CC)NC(=O)[C@H](C)NC1=O [I16E] (HELM PEPTIDE1{G.G.D.G.S.I.A.E.Y.F.N.R.P.M.H.E.H.D.W.Q.I.M.D.S.G.Y.Y.G}$PEPTIDE1,PEPTIDE1,1:R1-8:R3$$$V2.0) | -7.5 | Yes | 0.5 to 1 | – | –
